Data published in US20210244737A1, “COMPOSITIONS FOR TREATING MELANOMA” (INSERM (INSTITUT NATIONAL DE LA SANTÉ ET DE LA RECHERCHE …, priority 2018, published 2021).

What was measured:
1205Lu melanoma cells [1] = settings: Kaplan-Meier, 1205Lu melanoma-bearing mice
Experimental: Mouse experiments were carried out in accordance with the Institutional Animal Care and the local ethical committee. […] Tumor was measured by caliper and the volume was calculated using the formula: V=tumor width×tumor length 2×0.5. When tumor reached 100 mm^3, mice were randomly grouped into control and test groups. […] Mice in control group were treated with vehicle. […] After animal sacrifice tumors were dissected, fixed in formalin and embedded in paraffin.

1205Lu melanoma cells [2] = assay: Apoptosis by flow cytometry (AnnexinV-FITC/PI) of cells on MAF-derived ECM; assay type: cell-based; settings: 10 μM Imatinib in presence of 2 μM Vemurafenib, 48 h, 1205Lu on 3D-ECM
Experimental: Cell cycle profiles were determined by flow cytometry analysis of propidium iodide (PI)-stained cells. Melanoma cells cultured onto cell-derived matrices and treated with or without 2 μM vemurafenib for 48 h were washed, fixed in 80% ethanol and incubated at −20° C. for 24 h. Cells were then stained for 20 min at 37° C. in buffer containing 40 μg/ml PI and 20 μg/ml ribonuclease A from bovine pancreas. Cell cycle profiles were collected on a FACS Canto. Cell death was evaluated by flow cytometry following staining with AnnexinV/PI (eBioscience).

DDR2 = molecular target: T1, DDR2 (Homo sapiens, UniProt Q16832); assay: Type I collagen-mediated DDR2 tyrosine phosphorylation in melanoma cells (immunoblot); assay type: cell-based; settings: data not shown
T1 sequence (Q16832 22-855): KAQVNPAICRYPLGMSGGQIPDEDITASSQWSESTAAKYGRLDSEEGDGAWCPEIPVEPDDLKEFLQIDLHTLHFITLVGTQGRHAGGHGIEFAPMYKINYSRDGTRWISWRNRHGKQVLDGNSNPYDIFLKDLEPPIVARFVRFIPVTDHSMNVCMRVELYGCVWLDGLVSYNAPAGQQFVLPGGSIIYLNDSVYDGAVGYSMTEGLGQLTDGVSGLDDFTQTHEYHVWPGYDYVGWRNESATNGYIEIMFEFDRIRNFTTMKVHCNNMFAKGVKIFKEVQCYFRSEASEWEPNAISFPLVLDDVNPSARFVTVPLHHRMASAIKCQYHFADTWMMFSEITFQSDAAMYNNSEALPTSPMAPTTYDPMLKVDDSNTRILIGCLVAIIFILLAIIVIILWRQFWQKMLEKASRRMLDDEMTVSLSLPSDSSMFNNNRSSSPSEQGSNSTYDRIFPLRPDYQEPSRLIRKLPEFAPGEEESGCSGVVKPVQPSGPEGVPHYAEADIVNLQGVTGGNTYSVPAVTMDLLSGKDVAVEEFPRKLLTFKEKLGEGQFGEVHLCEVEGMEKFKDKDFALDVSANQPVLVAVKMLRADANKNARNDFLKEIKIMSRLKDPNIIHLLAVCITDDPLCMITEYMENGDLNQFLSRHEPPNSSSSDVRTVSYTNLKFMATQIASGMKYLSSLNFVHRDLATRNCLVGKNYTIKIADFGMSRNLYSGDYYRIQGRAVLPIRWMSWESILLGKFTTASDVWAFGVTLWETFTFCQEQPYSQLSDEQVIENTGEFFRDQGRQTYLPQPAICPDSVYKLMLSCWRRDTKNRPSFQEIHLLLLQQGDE

SMILES | Median time to progression (1205Lu melanoma cells [1]) [days] | apoptosis (AnnexinV/PI cytometry) (1205Lu melanoma cells [2]) | type I collagen-mediated DDR2 tyrosine phosphorylation (DDR2)
CCCS(=O)(=O)Nc1ccc(F)c(C(=O)c2c[nH]c3ncc(-c4ccc(Cl)cc4)cc23)c1F [Vemurafenib] | 36 |  | 
Cc1ccc(NC(=O)c2ccc(CN3CCN(C)CC3)cc2)cc1Nc1nccc(-c2cccnc2)n1 [Imatinib, (4-(4-methylpiperazin-l-yhnethyl)-N-[4-methyl-3-(4-pyridin-3-yl)pyrimidin-2-ylamino)phenyl-benzamide)] |  | Induction of apoptosis | efficiently abrogated
